26 compounds from US20240287052A1, “NOVEL OXAZOLE DERIVATIVE AND PHARMACEUTICAL COMPOSITION FOR PREVENTING OR TREATING ALLERGIC DISEASES COMPRISING THE SAME” (AZCURIS CO., LTD., priority 2021, published 2024) can be followed below.

In experiment [1] the target is T1, IL33 and ST2 binding (Homo sapiens, UniProt O95760).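 Note: plate ELISA with coated Flag-tagged human IL-33 and His-tagged human ST2, bound ST2 detected by anti-His HRP and TMB absorbance at 450 nm, 2 h compound incubation.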
T1 sequence (O95760 112-270 limits assumed): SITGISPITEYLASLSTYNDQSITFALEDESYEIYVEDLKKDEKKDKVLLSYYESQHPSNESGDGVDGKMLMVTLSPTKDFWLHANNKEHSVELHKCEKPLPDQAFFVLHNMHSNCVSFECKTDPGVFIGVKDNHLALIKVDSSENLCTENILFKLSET
The conditions noted are these: 30 µM.

Experiment [2] concerns IL-6 secretion in the human mast cell line HMC 1.1. In words: IL-6 production inhibition assay (IL-33 stimulated HMC 1.1 cells, IL-6 ELISA). The note with it: for inhibition at 1 µM: 1 μM compound, read-out: Inhibition of hIL-6 production (%) 1 μM; for inhibition at 10 µM: 10 μM compound, read-out: Inhibition of hIL-6 production (%) 10 μM. In kind it is cell-based. The method, then:
Human mast cell line HMC 1.1 cells were cultured in medium (Iscove's Modified Dulbecco's Medium, IMDM, HyClone) supplemented with […] fetal bovine serum (FBS, HyClone) and 1% antibiotics and maintained at 37° C. with 5% CO2.
HMC 1.1 cells, which are non-adherent cells, were cultured in 0.5 mL of culture medium containing 200 nM of IL-33 wild type human recombinant protein after centrifugation of cells in culture flasks filled to […] capacity and incubated for 24 hours with […], 10 μM, 25 μM, 30 μM or 50 μM of Example compound.
Medium was harvested by centrifugation (2,000×g, 5 min) and stored at −80° C. until ELISA assay.
Experiments were performed according to the protocol using the Human IL-6 ELISA kit (abCam).
The average of the three values obtained in triplicate was calculated and the amount of IL-6 secretion was measured using a standard curve. The measured IL-6 secretion was converted to 100% based on the vehicle treatment sample value to obtain the vehicle %.
In general terms: ELISA stands for enzyme-linked immunosorbent assay.

On to `CCOC(=O)c1nc(-c2ccc(C(F)(F)F)cc2)oc1-c1ccc(OC)c(OC)c1` [Compound 47, Ethyl 5-(3,4-dimethoxyphenyl)-2-(4-(trifluoromethyl)phenyl)oxazole-4-carboxylate], for which the inhibition in experiment [1] is -57%. Besides, in experiment [2] (24 hours), the inhibition at 1 µM came out at 36% and the inhibition at 10 µM amounted to 26%.

`CCOC(=O)c1nc(-c2ccc(C(F)(F)F)cc2)oc1-c1cc(OC)cc(OC)c1` [Compound 48, Ethyl 5-(3,5-dimethoxyphenyl)-2-(4-(trifluoromethyl)phenyl)oxazole-4-carboxylate]: in experiment [1], the inhibition came to 87%. For the same compound, in experiment [2] (24 hours), the inhibition at 1 µM was 22% and the inhibition at 10 µM amounted to 39%.

For `CCOC(=O)c1nc(-c2ccc(C(F)(F)F)cc2)oc1-c1cc(OC)c(OC)c(OC)c1` [Compound 49, Ethyl 2-(4-(trifluoromethyl)phenyl)-5-(3,4,5-trimethoxyphenyl)oxazole-4-carboxylate], the inhibition in experiment [1] was -65%. In experiment [2] (24 hours), the inhibition at 1 µM was -2% and the inhibition at 10 µM amounted to 16%.

`CC(=O)N1CCN(CCNC(=O)c2nc(-c3ccccc3C(F)(F)F)oc2-c2ccccc2)CC1` [Compound 128, N-(2-(4-acetylpiperazin-1-yl)ethyl)-5-phenyl-2-(2-(trifluoromethyl)phenyl)oxazole-4-carboxamide]: in experiment [1], the inhibition was -28%. Also, in experiment [2] (24 hours), the inhibition at 1 µM was 66% and the inhibition at 10 µM was 80%.

With `CSc1ccc(-c2oc(-c3ccc(C(F)(F)F)cc3)nc2C(=O)NCCN2CCN(C(C)=O)CC2)cc1` [Compound 194, N-(2-(4-acetylpiperazin-1-yl)ethyl)-5-(4-(methylthio)phenyl)-2-(4-(trifluoromethyl)phenyl)oxazole-4-carboxamide], the inhibition in experiment [1] came out at 41%. Besides, in experiment [2] (24 hours), the inhibition at 1 µM was determined as 44% and the inhibition at 10 µM was determined as 68%.

For `CC(=O)N1CCN(CCNC(=O)c2nc(-c3ccc(C(F)(F)F)cc3)oc2-c2cccnc2)CC1` [Compound 197, N-(2-(4-acetylpiperazin-1-yl)ethyl)-5-(pyridin-3-yl)-2-(4-(trifluoromethyl)phenyl)oxazole-4-carboxamide], in experiment [1], the inhibition was 99%. For the same compound, in experiment [2] (24 hours), the inhibition at 1 µM stood at 62% and the inhibition at 10 µM was found to be 70%.

As for `COc1cccc(-c2oc(-c3ccc(C(F)(F)F)cc3)nc2C(=O)NCCN2CCN(C(C)=O)CC2)c1` [Compound 198, N-(2-(4-acetylpiperazin-1-yl)ethyl)-5-(3-methoxyphenyl)-2-(4-(trifluoromethyl)phenyl)oxazole-4-carboxamide], the inhibition in experiment [1] came to 5%. For the same compound, in experiment [2] (24 hours), the inhibition at 1 µM turned out to be 62% and the inhibition at 10 µM was 77%.

On to `CCCNC(=O)c1nc(-c2ccc(C(F)(F)F)cc2)oc1-c1ccccc1OC` [Compound 297, 5-(2-Methoxyphenyl)-N-propyl-2-(4-(trifluoromethyl)phenyl)oxazole-4-carboxamide], for which, in experiment [2] (24 hours), the inhibition at 1 µM stood at 3% and the inhibition at 10 µM stood at 34%.

Turning to `CCNC(=O)c1nc(-c2ccc(C(F)(F)F)cc2)oc1-c1cccc(OC)c1` [Compound 298, N-Ethyl-5-(3-methoxyphenyl)-2-(4-(trifluoromethyl)phenyl)oxazole-4-carboxamide], in experiment [1], the inhibition came to 87%. The inhibition at 0.1 µM in experiment [2] (0.1 μM compound, 24 hours, read-out: Inhibition of hIL-6 production (%) 0.1 μM) was 12%. In experiment [2] (24 hours), the inhibition at 1 µM is 70% and the inhibition at 10 µM turned out to be 75%. For the same compound, the EC50 in experiment [2] (read-out: Inhibition of hIL-6 production EC50) amounted to 0.64 µM.

For the compound `CCCNC(=O)c1nc(-c2ccc(C(F)(F)F)cc2)oc1-c1cccc(OC)c1` [Compound 299, 5-(3-Methoxyphenyl)-N-propyl-2-(4-(Trifluoromethyl)phenyl)oxazole-4-carboxamide], in experiment [2] (24 hours), the inhibition at 1 µM stood at 40% and the inhibition at 10 µM was 57%.

As for `CCNC(=O)c1nc(-c2ccc(C(F)(F)F)cc2)oc1-c1ccc(OC)cc1` [Compound 300, N-Ethyl-5-(4-methoxyphenyl)-2-(4-(trifluoromethyl)phenyl)oxazole-4-carboxamide], in experiment [2] (24 hours), the inhibition at 1 µM is 37% and the inhibition at 10 µM came out at 47%.

Take `CCCNC(=O)c1nc(-c2ccc(C(F)(F)F)cc2)oc1-c1ccc(OC)cc1` [Compound 301, 5-(4-Methoxyphenyl)-N-propyl-2-(4-(Trifluoromethyl)phenyl)oxazole-4-carboxamide]: in experiment [2] (24 hours), the inhibition at 1 µM was 21% and the inhibition at 10 µM amounted to 31%.

Turning to `CCNC(=O)c1nc(-c2ccc(C(F)(F)F)cc2)oc1-c1ccc(OC)c(OC)c1` [Compound 302, 5-(3,4-dimethoxyphenyl)-N-ethyl-2-(4-(Trifluoromethyl)phenyl)oxazole-4-carboxamide], in experiment [2] (24 hours), the inhibition at 1 µM is -34% and the inhibition at 10 µM is -29%.

Consider `CCNC(=O)c1nc(-c2ccc(C(F)(F)F)cc2)oc1-c1cc(OC)cc(OC)c1` [Compound 303, 5-(3,5-Dimethoxyphenyl)-N-ethyl-2-(4-(trifluoromethyl)phenyl)oxazole-4-carboxamide], for which, in experiment [2] (24 hours), the inhibition at 1 µM is 26% and the inhibition at 10 µM was 26%.

For `CCNC(=O)c1nc(-c2ccc(C(F)(F)F)cc2)oc1-c1cc(OC)c(OC)c(OC)c1` [Compound 304, N-Ethyl-2-(4-(trifluoromethyl)phenyl)-5-(3,4,5-trimethoxyphenyl)oxazole-4-carboxamide], in experiment [2] (24 hours), the inhibition at 1 µM was -47% and the inhibition at 10 µM was -74%.

Take `CCNC(=O)c1nc(-c2ccc(C(F)(F)F)cc2)oc1-c1ccccc1OC(F)(F)F` [Compound 305, N-Ethyl-5-(2-(trifluoromethoxy)phenyl)-2-(4-(trifluoromethyl)phenyl)oxazole-4-carboxamide]: in experiment [1], the inhibition is -17%. Further, in experiment [2] (24 hours), the inhibition at 1 µM is -4% and the inhibition at 10 µM amounted to 26%.

For the compound `CCCNC(=O)c1nc(-c2ccc(C(F)(F)F)cc2)oc1-c1ccccc1OC(F)(F)F` [Compound 306, N-Propyl-5-(2-(trifluoromethoxy)phenyl)-2-(4-(trifluoromethyl)phenyl)oxazole-4-carboxamide], the inhibition in experiment [1] was determined as 38%. Besides, in experiment [2] (24 hours), the inhibition at 1 µM is -38% and the inhibition at 10 µM is 45%.

With `CCNC(=O)c1nc(-c2ccc(C(F)(F)F)cc2)oc1-c1ccncc1` [Compound 309, N-Ethyl-5-(pyridin-4-yl)-2-(4-(trifluoromethyl)phenyl)oxazole-4-carboxamide], in experiment [2] (24 hours), the inhibition at 1 µM was found to be 56% and the inhibition at 10 µM was found to be 51%.

Turning to `CCCNC(=O)c1nc(-c2ccc(C(F)(F)F)cc2)oc1-c1ccncc1` [Compound 310, N-Propyl-5-(pyridin-4-yl)-2-(4-(trifluoromethyl)phenyl)oxazole-4-carboxamide], in experiment [2] (24 hours), the inhibition at 1 µM is 49% and the inhibition at 10 µM was 58%.

Take `CCNC(=O)c1nc(-c2ccc(C(F)(F)F)cc2)oc1-c1cccc(C#N)c1` [Compound 311, 5-(3-Cyanophenyl)-N-ethyl-2-(4-(Trifluoromethyl)phenyl)oxazole-4-carboxamide]: in experiment [1], the inhibition was -5%. In addition, in experiment [2] (24 hours), the inhibition at 1 µM is 64% and the inhibition at 10 µM is 80%.

As to `CCNC(=O)c1nc(-c2ccc(OC)cc2)oc1-c1ccccc1` [Compound 312, N-Ethyl-2-(4-methoxyphenyl)-5-phenyloxazole-4-carboxamide], in experiment [1], the inhibition was -47%. In experiment [2] (24 hours), the inhibition at 1 µM turned out to be 66% and the inhibition at 10 µM worked out at 81%.

On to `CCNC(=O)c1nc(-c2cc(F)cc(F)c2)oc1-c1ccccc1` [Compound 313, 2-(3,5-Difluorophenyl)-N-ethyl-5-phenyloxazole-4-carboxamide], for which the inhibition in experiment [1] was -29%. In experiment [2] (24 hours), the inhibition at 1 µM was -7% and the inhibition at 10 µM was 27%.

Turning to `CCNC(=O)c1nc(-c2cccc(Cl)c2)oc1-c1ccccc1` [Compound 314, 2-(3-Chlorophenyl)-N-ethyl-5-phenyloxazole-4-carboxamide], in experiment [1], the inhibition was -18%. For the same compound, in experiment [2] (24 hours), the inhibition at 1 µM was determined as 10% and the inhibition at 10 µM is 81%.

Take `CCNC(=O)c1nc(-c2ccc(C(F)(F)F)cc2)oc1-c1cccc(O)c1` [Compound 318, N-Ethyl-5-(3-hydroxyphenyl)-2-(4-(trifluoromethyl)phenyl)oxazole-4-carboxamide]: in experiment [2] (24 hours), the inhibition at 1 µM worked out at 70% and the inhibition at 10 µM stood at 79%.

Take `CCCNC(=O)c1nc(-c2ccc(C(F)(F)F)cc2)oc1-c1cccc(O)c1` [Compound 319, 5-(3-Hydroxyphenyl)-N-propyl-2-(4-(trifluoromethyl)phenyl)oxazole-4-carboxamide]: in experiment [2] (24 hours), the inhibition at 1 µM came to 75% and the inhibition at 10 µM stood at 80%.

For `CCNC(=O)c1nc(-c2ccc(C(F)(F)F)cc2)oc1-c1ccc(O)c(O)c1` [Compound 321, 5-(3,4-Dihydroxyphenyl)-N-ethyl-2-(4-(trifluoromethyl)phenyl)oxazole-4-carboxamide], in experiment [2] (24 hours), the inhibition at 1 µM was 50% and the inhibition at 10 µM was found to be 72%.

As a reminder, the inhibition is the relative decrease from the control value, in per cent. A word on the EC50: it is the midpoint of the concentration-response curve.
